{
  "source": "patent US5366983A",
  "about": "“Use of quaternary ammonium compounds to remove salmonella contamination from meat products” (The Board of Trustees of The University of Arkansas, priority 1992, dated 1994)",
  "key": {"[1]": {"test_system": "Salmonella typhimurium on chicken skin", "test": "Effect of surfactants on Salmonella attached to chicken skin, drumsticks (Tables F1-F4)", "conditions": "4° C.", "procedure": "The following experiments utilizing chicken legs were conducted to determine the killing potential of a variety of surfactants against Salmonella on the skin and free in solutions. To this end, chicken legs obtained from the Department of Agriculture at the University of Arkansas, Fayetteville, were incubated for thirty minutes at room temperature with a 1:5000 dilution of Salmonella typhimurium. The chicken legs were removed five at a time and then rinsed twice in tap water to remove the unattached and excess Salmonella. The rinse water was sampled, diluted, and then plated onto XLD pour plates. […] The chicken legs were then removed and rinsed twice in tap water to remove the released Salmonella and excess chemicals. Rinses were then sampled, diluted, and then plated onto XLD pour plates.\nThe chicken legs were then individually washed with 100 ml sterile double distilled water, and then shaken fifty times. Samples of the wash H2 O were diluted and plated onto XLD pour plates. The chicken legs were further swabbed after the washing step above. The swabs were then plated onto the XLD plates. A set of wash samples were enriched with TT Broth Base Hajna and then plated onto XLD plates.\nAll of the samples were plated in 1 ml aliquots onto XLD pour plates. A positive control sample incubated in sterile double distilled water at 4° C. was run for each of the aforementioned conditions. Treatments occurred at both 4° C. and 25° C. The data is reported as the mean number of CFU/ml. The ratio in the table represents the number of chicken legs out of a sample of ten chicken legs producing the notated number of colonies, as indicated by the +, ++, +++, or ++++."}, "[2]": {"test_system": "Salmonella typhimurium on chicken skin", "test": "Prevention of attachment of Salmonella on excised chicken skin (Table F5)", "conditions": "rinse water; 30 minutes at room temperature", "procedure": "To determine the ability of surfactants to inhibit attachment or produce detachment of Salmonella, the following experiment was conducted. A hole was bored into the bottom of a 150 ml specimen cup. Chicken skin was excised from a drum stick and then placed over the cap of the specimen cup, and then the cap was screwed on. S. typhimurium was diluted 1:5000 with PBS or a surfactant. The surfactants were diluted appropriately. The skin was then inoculated with the solution containing the S. typhimurium and the surfactant for 30 minutes at room temperature.\nFollowing incubation, the skin was washed. The rinse water was diluted appropriately in PBS and then plated onto XLD pour plates. The S. typhimurium was counted and reported as CFU/ml. The skin was swabbed so as to remove any remaining S. typhimurium using a nitroellulose lift and the CFU's/ml on the lift were also counted."}, "[3]": {"test_system": "Salmonella typhimurium ATCC 14028 attached to human buccal epithelial cells", "assay_type": "cell-based", "procedure": "Studies were conducted on the attachment of Salmonella typhimurium to human buccal epithelial cells using the modified procedure of Boussard et al., International J. Pharmaceutics 53: 253-256 (1989). In this study, the activities of cationic and anionic surfactant compounds as well as certain chelating agents were compared on the detachment of S. typhimurium from epithelial cells.\nTo this end, bacteria were grown on nutrient agar for 16 hours at 37° C. The cells were suspended in 0.008 M phosphate buffered saline (PBS) at pH 7.2 and washed two times at 4500 rpm for 10 minutes. The last suspension was diluted in PBS to obtain a cell concentration of 0.5 to 1×10^9 cells/ml. Human epithelial cells were obtained by swabbing the buccal surface of a healthy, nonsmoking donor. […] The number of living cells was estimated and the suspension diluted to 0.5 to 1×10^5 cells/ml.\nNext, the suspension of the human buccal cells was mixed with an equal volume of the bacterial suspension (3.0 ml), or PBS (0.8 ml). Contact was allowed for 1.5 hours at 35° C. under agitation. The mixtures were then centrifuged for 10 minutes at 4500 rpm. Each suspension, 1.0 ml, was transferred into Eppendorf vials and washed with PBS at 1500 rpm for 10 minutes. After the washing, the cells were treated with 1.0 ml PBS or 1.0 ml of the test chemical solution. Treatment was performed by suspending and vortexing on a low speed for 30 seconds followed by centrifugation at 1500 rpm for 10 minutes.\nAfter the treatment, the cells were washed once with PBS and then 20 μl of erythrosin B was added to each vial. The suspension was centrifuged at 1500 rpm for 10 minutes, and the cells were washed twice under the same conditions. The final pellet was suspended in 300 μl of PBS. This suspension was spread out onto microscope slides and dried overnight at room temperature. After counter staining with methylene blue, the slides were microscopically examined under oil immersion."}, "[4]": {"test_system": "Salmonella typhimurium ATCC 14028", "test": "Effect on viability of Salmonella in suspension (Tables D-1 to D-3)", "assay_type": "cell-based", "conditions": "for bacterial viability: Table D-3", "procedure": "EC50 values for four of the compounds were calculated from the bactericidal activity of the compounds as a function of molar concentration by a nonlinear regression algorithm.\nIn addition to the quaternary ammonium compounds, the antimicrobial activities of chelating agents Na2 -EDTA and EGTA were investigated. Na2 -EDTA was purchased from the Sigma Chemical Company (St. Louis, Mo.). Na2 -EDTA was dissolved in 0.04 M PPB prior to the assay and further dilutions were made in the same buffer.\nEGTA was purchased from the Aldrich Chemical Company (Milwaukee, Wis.). EGTA was dissolved in 0.04 M PPB according to the procedure described by Harafuji and Ogawa (J. Biochem. 87:1305-1312 (1980)). After heating EGTA for 15 minutes at 80° C., the pH was adjusted to 7.0 by addition of NaOH. EGTA was filter-sterilized using a 0.2 μm Acro disc filter (Gelman Sciences; Ann Arbor, Mich.) prior to the assay. Further dilutions were made in sterile PPB."}, "[5]": {"test_system": "Salmonella typhimurium ATCC 14028", "test": "Minimum growth inhibitory concentration, macrodilution", "assay_type": "cell-based", "conditions": "Salmonella enterica, Mueler Hinton broth, macrodilution (NCCLS)", "procedure": "Minimum growth inhibitory concentrations (MICs) of quaternary ammonium compounds and Na2 -EDTA for Salmonella were determined using Mueler Hinton broth (BBL Microbiology system, Cockeysville, Md.) and by the macrodilution method established by the National Committee for Clinical Laboratory Standards (NCCLS). Escherichia coli ATCC 25922 and Staphylococcus aureus ATCC 29213 were included in each assay as reference strains."}},
  "note": "“Also recorded” adds a separate entry of the source. Read-outs that look alike come from different tables or passages of the source.",
  "data": [
    {"smiles": "CCCCCCCCCCCCOS(=O)(=O)[O-].[Na+]", "note": "[SDS, sodium dodecylsulfate, reference compound]", "values": [
      {"measurement": "Enrichment, chicken legs out of ten", "setting": "[1]; 0.1%", "value": "10/10"},
      {"measurement": "Rinse H2O", "setting": "[1]; 0.1%", "value": "++ (11-100)"},
      {"measurement": "Surfactant Solution", "setting": "[1]; 0.1%", "value": "++ (11-100)"},
      {"measurement": "Swabs, chicken legs producing the notated number of colonies", "setting": "[1]; 0.1%", "value": "10/10"},
      {"measurement": "Swabs, colonies", "setting": "[1]; 0.1%", "value": "++ (11-100)"},
      {"measurement": "Wash H2O, chicken legs producing the notated number of colonies", "setting": "[1]; 0.1%", "value": "10/10"},
      {"measurement": "Wash H2O, colonies", "setting": "[1]; 0.1%", "value": "++ (11-100)"},
      {"measurement": "Enrichment, chicken legs out of ten", "setting": "[1]; 0.5%", "value": "10/10"},
      {"measurement": "Rinse H2O", "setting": "[1]; 0.5%", "value": "+ (1-10)"},
      {"measurement": "Surfactant Solution", "setting": "[1]; 0.5%", "value": "++ (11-100)"},
      {"measurement": "Swabs, chicken legs producing the notated number of colonies", "setting": "[1]; 0.5%", "value": "10/10"},
      {"measurement": "Swabs, colonies", "setting": "[1]; 0.5%", "value": "++ (11-100)"},
      {"measurement": "Wash H2O, chicken legs producing the notated number of colonies", "setting": "[1]; 0.5%", "value": "10/10"},
      {"measurement": "Wash H2O, colonies", "setting": "[1]; 0.5%", "value": "++ (11-100)"},
      {"measurement": "Enrichment, chicken legs out of ten", "setting": "[1]; 1.0%", "value": "10/10"},
      {"measurement": "Rinse H2O", "setting": "[1]; 1.0%", "value": "+ (1-10)"},
      {"measurement": "Surfactant Solution", "setting": "[1]; 1.0%", "value": "+ (1-10)"},
      {"measurement": "Swabs, chicken legs producing the notated number of colonies", "setting": "[1]; 1.0%", "value": "10/10"},
      {"measurement": "Swabs, colonies", "setting": "[1]; 1.0%", "value": "++ (11-100)"},
      {"measurement": "Wash H2O, chicken legs producing the notated number of colonies", "setting": "[1]; 1.0%", "value": "10/10"},
      {"measurement": "Wash H2O, colonies", "setting": "[1]; 1.0%", "value": "++ (11-100)"},
      {"measurement": "CFU/ml on XLD agar", "setting": "[2]", "value": "4 × 10^2 CFU/ml"},
      {"measurement": "adherence, mean value of attached bacteria", "setting": "[3]; 25 ug/ml, Table A-1", "value": "43 ± 25"},
      {"measurement": "adherence, mean value of attached bacteria", "setting": "[3]; 50 ug/ml, Table A-1", "value": "26 ± 19"},
      {"measurement": "cytotoxicity to buccal epithelial cells", "setting": "[3]; 500 ug/ml, Table A-1", "value": "cytotoxic"}
    ]},
    {"smiles": "O=C(O)CN(CCN(CC(=O)O)CC(=O)O)CC(=O)O", "note": "[Na2 -EDTA, disodium ethylenectiaminetetraacetate, reference compound]", "values": [
      {"measurement": "bacterial viability", "setting": "[4]; 1,250 μg/ml", "value": "9.48 ± 0.63 × 10^8 CFU/ml"},
      {"measurement": "bacterial viability", "setting": "[4]; 2,500 μg/ml", "value": "9.68 ± 0.16 × 10^8 CFU/ml"},
      {"measurement": "bacterial viability", "setting": "[4]; 5,000 μg/ml", "value": "9.89 ± 0.37 × 10^8 CFU/ml"},
      {"measurement": "bactericidal effect against S. typhimurium (in words)", "setting": "[4]; viability testing in suspension", "value": "ineffective; also recorded: no bactericidal effect"},
      {"measurement": "MIC", "setting": "[5]", "value": 625, "unit": "µg/mL"},
      {"measurement": "adherence, mean value of attached bacteria", "setting": "[3]; 500 ug/ml, Table A-2", "value": "43 ± 21"},
      {"measurement": "adherence, mean value of attached bacteria", "setting": "[3]; 1250 ug/ml, Table A-2", "value": "22 ± 12"},
      {"measurement": "adherence, mean value of attached bacteria", "setting": "[3]; 2500 ug/ml, Table A-2", "value": "35 ± 18"},
      {"measurement": "adherence, mean value of attached bacteria", "setting": "[3]; 10,000 ug/ml, Table A-2", "value": "31 ± 14"},
      {"measurement": "effect on bacteria attached to the epithelial cells (in words)", "setting": "[3]; chelating agents, Na2-EDTA at 1250 μg/ml", "value": "highly effective"}
    ]}
  ]
}
